From patent US20250129328A1, “AN ISOLATED S. SALIVARIUS STRAIN AND ITS USE AS AN ANTIMICROBIAL PRODUCING PROBIOTIC” (priority 2021, published 2025)
Ends that are not written are not given here.

Legend:
F. nucleatum DSM15643 = assay: Well diffusion assay (WDA) of purified nisin peptides; assay type: cell-based, Fusobacterium nucleatum; parameters: dose or concentration left out as unconfirmed
L. bulgaricus DPC5383 = assay: Well diffusion assay (WDA) of purified nisin peptides and CFS; assay type: cell-based, Lactobacillus delbrueckii ssp. bulgaricus; parameters: dose or concentration left out as unconfirmed; conditions: semi-pure nisin G and pure nisin A
Description: The culture was centrifuged at 7,871 g for 20 minutes and cells separated from the supernatant. The cell pellet was resuspended in 300 ml of 70% 2 propanol 0.1% TFA (IPA) and stirred at room temperature for 3-4 hours. The resulting suspension was centrifuged again, and the supernatant retained for purification of the antimicrobial. […] The IPA was removed by rotary evaporation and the sample applied to a 12 ml, 2 g Strata-E C18 SPE column pre-equilibrated (Phenomenex, Cheshire, UK) with methanol and water. The column was washed with 24 ml 30% ethanol and then 24 ml 70% 2-propanol 0.1% TFA. […] The IPA was removed from the C18 SPE IPA eluent by rotary evaporation (Buchi Labortechnik AG; Flawil, Switzerland) and the resulting sample applied to a semi prep Jupiter Proteo (10×250 mm, […], 90 Å) Reversed Phase HPLC column running a 30-50% acetonitrile 0.1% TFA gradient at 2.5 mL/min where buffer A was 0.1% TFA and buffer B was 100% acetonitrile 0.1% TFA. […] Bioactive fractions were pooled and lyophilized using a Genevac lyophiliser (Suffolk, UK).

| Substance | Zone of inhibition (area of zone of inhibition minus area of well) (F. nucleatum DSM15643) | Antimicrobial activity, comparison of size of zones of inhibition (in words) (L. bulgaricus DPC5383) |
| --- | --- | --- |
| nisin G | 37.7 mm^2 | less than nisin A |
| nisin A (ITSISLCTPGCKTGALMGCNMKTATCHCSIHVSK; also: lantibiotic, modified residues and rings not given here; UniProt P13068 24-57, looked up) [prototypical broad spectrum lantibiotic, purified from nisinA®P (Handary) by reversed phase HPLC, reference compound] | 395.8 mm^2 | – |
